Experimental data from patent US20140323354A1, “Chemically Modified Ligase Cofactors, Donors and Acceptors” (priority 2010, published 2014).

Target: T1, T4 DNA ligase (Enterobacteria phage T4, UniProt P00970)
T1 construct: purchased New England Biolabs
Experiment: Ligation yield with modified ATP cofactors on matched and mismatched templates, PAGE analysis
Assay type: biochemical, bacteriophage T4
Settings: for discrimination of modified cofactor between matched and mismatched templates: matched T-A versus mismatched C-A, G-A, A-A, panel of ten modified cofactors at 1 mM
Description: Each 20 μL reaction was performed in buffer containing 50 mM Tris-HCl (pH 7.5), 10 mM MgCl2, 10 mM dithiothreitol, 25 μg/ml bovine serum albumin. 1 mM ATP was added to the buffer separately. The donor (LP3′T w/PBS), acceptor (Com3F w/PBS), and template (Alg) were at 0.1 μM equimolar amounts. The acceptor, donor, and template were denatured at 95° C. for 3 minutes and annealed at 4° C. for 3 minutes. Ligation was initiated by adding 400 units of T4 ligase (New England Biolabs) to each reaction. Ligation proceeded at 16° C. for 20 minutes. Ligation was terminated by heating the reaction to 65° C. for 10 minutes and adding an equal volume of 2×TBE-Urea buffer (Invitrogen). Samples were run on 6% TBE-Urea Novex gels (Invitrogen). The gels were stained with SYBR Gold nucleic acid stain (Invitrogen) according to manufacturer's protocol.
ATP analogs were compared to the corresponding natural ATP cofactor for their ability to join matched and mismatched templates (FIG. 4). ATP analogs were evaluated for relative ligation yield in the presence of matched template (LP3′T Acceptor w/PBS and Alg template; T-A matched base pair at the 3′-end of the acceptor strand) to the relative yield when a mismatched template was used (LP3′C Acceptor w/PBS and Alg template; C-A mismatched base pair on 3′-end of the acceptor strand). Reactions were performed as described for Example 1, with a cofactor of interest included in the reaction at 1 mM concentration. Natural ATP substrate was compared to the following modified cofactors: 7-deaza-ATP (7-deaza-adenosine-5′-triphosphate), N1-methyl-ATP (N1-methyl-adenosine-5′-triphosphate), 2-amino-ATP (2-amino-adenosine-5′-triphosphate), 2′-amino-2′-deoxy-ATP (2′-amino-2′-deoxyadenosine-5′-triphosphate), 3′-amino-2′,3′-dideoxy-ATP (3′-amino-2′,3′-dideoxy-adenosine-5′-triphosphate) (FIG. 4). All modified cofactors supported ligation with similar efficiency to natural ATP when a matched template was employed.
One method of determining the ligation yield of a ligation component of interest (e.g., modified ligase cofactors, modified donors or modified acceptors) is by assigning a specificity number. Specificity numbers can be determined for example, by dividing the ligation yield of a matched case by the ligation yield of a mismatched case where a single base pair differs relative to the matched case. […] The yields are then normalized to the template readings in the same reaction, with subsequent normalization to the ligation yield for a reaction including the natural (ATP) cofactor, where ATP has a normalized yield of 1.0. For example, in the case of 2′-deoxy-ATP (2′-deoxy-adenosine-5′-triphosphate; FIG. 4), the ligation yield in the matched case (LP3′T Acceptor w/PBS and Alg template; T-A matched base pair on 3′ end of the acceptor strand) was 1.34. In the mismatched case (LP3′C Acceptor w/PBS and Alg template; C-A mismatched base pair on 3′ end of the acceptor strand) the ligation yield was 0.18. Accordingly, the specificity number assigned to 2′-deoxy-ATP in a C-A mismatch case was 1.34÷0.18 or 7.44. A value greater than one is indicative of improved ligation specificity. A value less than one is indicative of reduced ligation specificity.
ATP analogs were compared to the natural ATP cofactor for their ability to join matched and mismatched templates for relative ligation yield in the presence of matched template (LP3′T Acceptor w/PBS and Alg template; T-A matched base pair on 3′-end of the acceptor strand) relative to the yield of templates which contained a mismatched base pair on 3′-end of the acceptor: 1) LP3′C Acceptor w/PBS and Alg template; C-A mismatch, 2) LP3′G Acceptor w/PBS and Alg template; G-A mismatch, and 3) LP3′A Acceptor w/PBS and Alg template; A-A mismatch (FIG. 5). Reactions were performed as described for Example 1, with a cofactor of interest included in the reaction at 1 mM concentration. […]

T1 sequence (P00970 whole entry): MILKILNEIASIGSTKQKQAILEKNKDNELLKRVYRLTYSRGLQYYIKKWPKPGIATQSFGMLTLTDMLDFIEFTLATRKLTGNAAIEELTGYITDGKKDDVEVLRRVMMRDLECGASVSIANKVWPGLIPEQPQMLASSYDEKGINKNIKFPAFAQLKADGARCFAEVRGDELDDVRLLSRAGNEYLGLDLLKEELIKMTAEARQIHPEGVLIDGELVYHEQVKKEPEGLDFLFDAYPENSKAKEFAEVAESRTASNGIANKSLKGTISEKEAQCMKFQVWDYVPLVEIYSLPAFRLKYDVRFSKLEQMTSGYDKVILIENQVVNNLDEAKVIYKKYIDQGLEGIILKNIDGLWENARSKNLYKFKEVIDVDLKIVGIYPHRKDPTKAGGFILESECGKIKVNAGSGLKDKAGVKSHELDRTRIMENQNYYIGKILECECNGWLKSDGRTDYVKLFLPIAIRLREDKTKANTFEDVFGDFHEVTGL

## Nc1ncnc2c1ncn2[C@H]1C[C@H](O)[C@@H](COP(=O)(O)OP(=O)(O)OP(=O)(O)O)O1 [2′-deoxy-ATP, 2′-deoxy-adenosine-5′-triphosphate]
LP3′C Acceptor w/PBS and Alg template, C-A mismatched base pair on 3′ end of acceptor, cofactor 1 mM, normalized to ATP = 1.0
  ligation yield in the mismatched case: 0.18
LP3′T Acceptor w/PBS and Alg template, T-A matched base pair on 3′ end of acceptor, cofactor 1 mM, normalized to ATP = 1.0
  ligation yield in the matched case: 1.34
Matched (T-A) yield divided by mismatched (C-A) yield, greater than one = improved ligation specificity
  specificity number: 7.44
  discrimination of modified cofactor between matched and mismatched templates: lead modifications of interest

## Nc1ncnc2c1ncn2[C@H]1C[C@H](N)[C@@H](COP(=O)(O)OP(=O)(O)OP(=O)(O)O)O1 [3′-amino-2′,3′-dideoxy-adenosine-5′-triphosphate]
  discrimination of modified cofactor between matched and mismatched templates: lead modifications of interest

## Nc1ncnc2c1ncn2[C@@H]1O[C@H](COP(O)(=S)OP(=O)(O)OP(=O)(O)O)[C@@H](O)[C@H]1O (stereo partly drawn) [5′-alpha-thio-adenosine-5′-triphosphate]
  discrimination of modified cofactor between matched and mismatched templates: lead modifications of interest
